Experimental data as given in publication PMC11678869, “Functional Role of Odorant-Binding Proteins in Response to Sex Pheromone Component Z8-14:Ac in Grapholita molesta (Busck)” (Insects, 2024).

Key:
PFM males [1] = experiment: Field trapping with delta traps, peach orchard; assay type: in vivo, Grapholita funebrana
Description: (§1) To determine the inhibitory effects on OFM male adults and the impact on the trapping effects of PFM male adults, varying amounts of Z8-14:Ac (0, 5, 10, 25, 50, 75, 100, 125, 150 μg) or Z10-14:Ac (0, 25, 50, 100, 150, 250, 350, 450, and 550 μg) were added to rubber septa loaded with a constant dosage of the main pheromone (500 μg of Z8-12:Ac and 20 μg of E8-12:Ac) of the PFM. Trapping experiments of Z8-14:Ac were carried out in peach and pear orchards in Yan’an and Xinjiang (China), respectively. Trapping tests of Z10-14:Ac were performed in pear orchards in Xinjiang (China). Each orchard had nine plots, with three plots in one field. Each plot consisted of a linear arrangement of traps loaded with a constant dosage of the main pheromones and different percentages of the secondary pheromone Z8-14:Ac or Z10-14:Ac of the PFM. Plots in the same field were placed 30 m apart, and fields were ≥1 km apart. The traps were hung 1.4 m from the ground on a suspension bracket between two rows of peach or pear trees from 10 June to 25 July 2021 in Xinjiang and from 15 June to 30 July 2021 in Yan’an. The positions of the traps within the plot were randomly arranged. Every 5 days, counts were taken, and the traps were rotated to the adjacent position to avoid any potential position effects. The septa loaded with sex pheromone components were replaced with new ones after every 15 days of suspension. The data were analyzed using a one-way ANOVA, and the differences in the average trapping of OFM and PFM males using sex attractants containing different amounts of Z8-14:Ac or Z10-14:Ac were further analyzed using Tukey’s HSD test, both of which were performed using SPSS 23.0.

PFM males [2] = experiment: Field trapping with delta traps, pear orchard; assay type: in vivo, Grapholita funebrana
Description: as §1

GmolPBP2 mutant I94A = GmolPBP2 mutant I94A (Grapholita molesta, UniProt A0A059VC28, I119A); experiment: Fluorescence competitive binding assay, GmolPBP2 mutant
Description: (§2) The binding affinities of three rGmolPBPs and two rGmolGOBPs for Z8-14:Ac were determined using an F-2700 fluorescence spectrophotometer (Hitachi, Tokyo, Japan). First, we measured the dissociation constants (Kd) of the rGmolPBPs (or rGmolGOBPs) binding to 1−NPN. Each protein was diluted to 2 μM with 20 mM Tris-HCl buffer (pH 7.4); then, 2 mL of the protein solution was transferred to a quartz cuvette and titrated with 1 mM 1−NPN to a final concentration of 1–18 μM. As the doses of 1−NPN were increased, the increasing amplitude of the fluorescence intensity decreased, and finally, the binding of the protein to 1−NPN reached saturation. The Kd values were calculated using the nonlinear regression method and the Scatchard equation. Second, we measured the inhibitory constant (Ki) of Z8-14:Ac’s competitive binding with each rGmolPBP (or rGmolGOBP) from the protein/1−NPN complex. The initial fluorescence intensity values were measured after a 2 min reaction in 2 mL solution of 20 mM Tris-HCl (pH 7.4) containing 2 µM rGmolPBP (or rGmolGOBP) protein and 2 µM 1−NPN. Then, the solution was titrated with aliquots of 1 mM Z8-14:Ac to obtain final concentrations in the range of 1–14 µM, and the fluorescence intensity value of each reaction was recorded. The Ki values were calculated using the following equation: Ki = [IC50]/(1 + [1 − NPN]/Kd) where IC50 is the concentration of Z8-14:Ac when half of the initial fluorescence intensity value of the rGmolPBP (or GmolGOBP)/1−NPN complex is replaced, [1 − NPN] represents the concentration of free 1−NPN, and Kd is the dissociation constant of the rGmolPBP (or GmolGOBP)/1−NPN complex.
(§3) Five amino acids—Phe12, Leu68, Ile94, Arg109, and Ile113—were identified as having lower binding free energies for GmolPBP2 interaction with Z8-14:Ac. To assess their role in binding, these residues were individually mutated to alanine using site-directed mutagenesis. Primers for mutagenesis were designed following the protocols recommended by the Fast Mutagenesis System (TransGen Biotech, Beijing, China) (Table S1). These mutations were introduced into the pET-28a(+)–GmolPBP2 plasmid using a Fast Mutagenesis System kit ([…]) and site-directed mutagenesis primers generating the mutants F12A, L68A, I94A, R109A, and I113A, respectively. Each plasmid was verified by DNA sequencing to confirm the presence of the desired mutation. Expression and purification of the mutated proteins followed the same protocols used for the wild-type GmolPBP2. The binding affinities of the five mutants for Z8-14:Ac were determined via fluorescence competitive binding assays. An increase in Ki values for the mutants relative to the wild-type GmolPBP2 would indicate that the corresponding amino acid residues may be crucial for binding to Z8-14:Ac.

GmolPBP2 mutant L68A = GmolPBP2 mutant L68A (Grapholita molesta, UniProt A0A059VC28, L93A); experiment: as above
Description: as §2, §3

GmolPBP2 mutant I113A = GmolPBP2 mutant I113A (Grapholita molesta, UniProt A0A059VC28, I138A); experiment: as above
Description: as §2, §3

GmolPBP2 mutant F12A = GmolPBP2 mutant F12A (Grapholita molesta, UniProt A0A059VC28, F37A); experiment: as above
Description: as §2, §3

GmolPBP2 mutant R109A = GmolPBP2 mutant R109A (Grapholita molesta, UniProt A0A059VC28, R134A); experiment: as above
Description: as §2, §3

[3] = Z8-12:Ac/E8-12:Ac/Z8-14:Ac 500/20/5 μg (100:4:1)
[4] = Z8-12:Ac/E8-12:Ac/Z8-14:Ac 500/20/10 μg (100:4:2)
[5] = Z8-12:Ac/E8-12:Ac/Z8-14:Ac 500/20/25 μg (100:4:5)
[6] = Z8-12:Ac/E8-12:Ac/Z8-14:Ac 500/20/50 μg (100:4:10)
[7] = Z8-12:Ac/E8-12:Ac/Z8-14:Ac 500/20/75 μg (100:4:15)
[8] = Z8-12:Ac/E8-12:Ac/Z8-14:Ac 500/20/100 μg (100:4:20)
[9] = Z8-12:Ac/E8-12:Ac/Z8-14:Ac 500/20/125 μg (100:4:25)
[10] = Z8-12:Ac/E8-12:Ac/Z8-14:Ac 500/20/150 μg (100:4:30)
[11] = adding 1–30% of Z8-14:Ac to the PFM sex attractants

Chain of GmolPBP2 mutant R109A (A0A059VC28 entry or part of it R134A): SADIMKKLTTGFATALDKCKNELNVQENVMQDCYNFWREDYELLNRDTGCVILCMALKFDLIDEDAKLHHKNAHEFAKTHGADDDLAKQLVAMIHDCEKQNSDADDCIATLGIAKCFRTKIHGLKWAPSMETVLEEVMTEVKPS
Chain of GmolPBP2 mutant I113A (A0A059VC28 entry or part of it I138A): as the sequence (A0A059VC28 entry or part of it R134A) above, with A109R, I113A counted along it
Chain of GmolPBP2 mutant F12A (A0A059VC28 entry or part of it F37A): as the sequence (A0A059VC28 entry or part of it R134A) above, with F12A, A109R counted along it
Chain of GmolPBP2 mutant I94A (A0A059VC28 entry or part of it I119A): as the sequence (A0A059VC28 entry or part of it R134A) above, with I94A, A109R counted along it
Chain of GmolPBP2 mutant L68A (A0A059VC28 entry or part of it L93A): as the sequence (A0A059VC28 entry or part of it R134A) above, with L68A, A109R counted along it

In the case of `CCCCC/C=C\CCCCCCCOC(C)=O` [Z8-14:Ac, (Z)-8-tetradecenyl acetate], the “Total PFM Males/Trap” value (PFM males [1]; [3]) is reported as 387.73 ± 18.31 a Males/Trap, the “Total PFM Males/Trap” value (PFM males [1]; [4]) is reported as 287.22 ± 7.96 a Males/Trap and the “Total PFM Males/Trap” value (PFM males [1]; [5]) is reported as 314.53 ± 26.14 a Males/Trap. The “Total PFM Males/Trap” value (PFM males [1]; [6]) was 331.58 ± 17.46 a Males/Trap, the “Total PFM Males/Trap” value (PFM males [1]; [7]) was 297.81 ± 4.75 a Males/Trap and the “Total PFM Males/Trap” value (PFM males [1]; [8]) was 285.62 ± 6.55 a Males/Trap. The “Total PFM Males/Trap” value (PFM males [1]; [9]) was 352.89 ± 32.42 a Males/Trap, the “Total PFM Males/Trap” value (PFM males [1]; [10]) was 348.30 ± 22.77 a Males/Trap and the “effect on the number of PFM males” value (PFM males [1]; [11]) was “neither significantly increased nor inhibited”. For the same compound, the “Total PFM Males/Trap” value (PFM males [2]; [3]) was 64.07 ± 6.89 a Males/Trap, the “Total PFM Males/Trap” value (PFM males [2]; [4]) was 45.47 ± 6.64 a Males/Trap and the “Total PFM Males/Trap” value (PFM males [2]; [5]) was 43.06 ± 0.34 a Males/Trap. The “Total PFM Males/Trap” value (PFM males [2]; [6]) was 53.73 ± 7.04 a Males/Trap, the “Total PFM Males/Trap” value (PFM males [2]; [7]) was 48.57 ± 6.31 a Males/Trap and the “Total PFM Males/Trap” value (PFM males [2]; [8]) was 42.36 ± 8.46 a Males/Trap. For the same compound, the “Total PFM Males/Trap” value (PFM males [2]; [9]) was 57.52 ± 21.06 a Males/Trap, the “Total PFM Males/Trap” value (PFM males [2]; [10]) was 72.67 ± 12.44 a Males/Trap and the “effect on the number of PFM males” value (PFM males [2]; [11]) was “neither significantly increased nor inhibited”. For the same compound, the IC50 (GmolPBP2 mutant I94A) was 1082 ± 8 nM, the Ki (GmolPBP2 mutant I94A) was 564 ± 4 nM and the “binding affinity relative to wild-type GmolPBP2” value (GmolPBP2 mutant I94A; mutant I94A) was “binding affinities comparable to the wild-type”. For the same compound, the IC50 (GmolPBP2 mutant L68A) was 1130 ± 26 nM, the Ki (GmolPBP2 mutant L68A) was 589 ± 7 nM and the “binding affinity relative to wild-type GmolPBP2” value (GmolPBP2 mutant L68A; mutant L68A) was “binding affinities comparable to the wild-type”. For the same compound, the IC50 (GmolPBP2 mutant I113A) was 980 ± 38 nM, the Ki (GmolPBP2 mutant I113A) was 520 ± 20 nM and the “binding affinity relative to wild-type GmolPBP2” value (GmolPBP2 mutant I113A; mutant I113A) was “binding affinities comparable to the wild-type”. The IC50 (GmolPBP2 mutant F12A) was over 14000 nM, the Ki (GmolPBP2 mutant F12A) was over 14000 nM and the “binding affinity relative to wild-type GmolPBP2” value (GmolPBP2 mutant F12A; mutant F12A) was “lost its affinity”. For the same compound, the IC50 (GmolPBP2 mutant R109A) was 1260 ± 29 nM, the Ki (GmolPBP2 mutant R109A) was 655 ± 15 nM and the “binding affinity relative to wild-type GmolPBP2” value (GmolPBP2 mutant R109A; mutant R109A) was “did not significantly affect the binding affinity”.
